Reference: patent US20170042780A1, “DENTIFRICE COMPOSITION WITH GUM BLEEDING RELIEF EFFICACY” (COLGATE-PALMOLIVE COMPANY, priority 2015, published 2017)

System: experimental animal plasma
Test: In-vitro Prothrombin Time (PT) Test
Format: biochemical
Settings: for Prothrombin Time: coagulant ingredient 1 weight % in water, 0.05 mL sample + 0.1 mL plasma, 37° C., thromboplastin added, mean of 10 repeats
Procedure: An In-vitro Prothrombin Time (PT) Test has been designed to test the coagulant efficacy (see Luz, L. et at., International Journal of Biological Macromolecules, 58 (2013), p. 31-36). […] The experimental methodology used was: […] When testing the “Toothpastes” in Table 2, below, a toothpaste slurry was prepared by mixing 1 part of the toothpaste under test with 2 parts DI water (all parts being parts by weight); then the supernatant was obtained by centrifuging the slurry for 20 mins at 8000 rpm. 0.1 mL of experimental animal plasma was placed in each testing tube (animal blood samples used in the experiment were waste products, and the animals were otherwise used for food). 0.05 mL of the test samples (0.05 mL of DI water or saline solution in control group) were added to separate tubes and mixed with the plasma. The mixtures were then heated in a water bath at 37° C. for 3 min, then 0.2 mL of thromboplastin (which had been preheated to 37° C.) was added to each testing tube and the contents mixed. A stopwatch was started immediately upon adding the thromboplastin to record the coagulation time (Prothrombin Time).

SMILES: NCc1ccc(C(=O)O)cc1 [4-(aminomethyl)benzoic acid]
- Prothrombin Time: 11.14 s
- clotting time compared with the controls (DI water and saline solution) (ingredient 1 weight % in water): significantly lower clotting time than the controls
- difference in clotting time between tranexamic acid and 4-(aminomethyl) benzoic acid (ingredients 1 weight % in water): No significant difference

SMILES: NC[C@H]1CC[C@H](C(=O)O)CC1 [Tranexamic acid, tranexamic acid, reference compound]
- Prothrombin Time: 11.66 s
